Experimental data from patent US12533341B2, “Small molecule inhibitors of voltage-gated sodium channel 1.7 and methods of using same” (Duke University, priority 2019, dated 2026).
“Also recorded” adds a separate entry of the source. Where two headings read alike, the source gives them in different places.

Columns and labels:
human Nav1.7 = human Nav1.7 (Homo sapiens, UniProt Q15858); test: Whole-cell patch-clamp of sodium currents in Nav1.7-expressing HEK293 cells; type: cell-based
Description: HEK-hNav1.7 stable cell line was purchased from SB Drug Discovery (Glasgow, United Kingdom). Human embryonic kidney 293 (HEK293) cells were obtained from the ATCC and maintained at the Duke cell culture facility. Cells were cultured in high-glucose (4.5 g/L) DMEM containing 10% (v/v) FBS (Gibco) and streptomycin/penicillin. For Nav1.7-expressing HEK293 cells, an additional antibiotic, blasticidin, was included. hNav1.5 transfection was performed by Lipofectamine 2000 at 70% confluence using 2 μg cDNA. The transfected cells were cultured in the same growth medium for 48 h before biochemical or electrophysiological studies.
(§1) Whole-cell patch-clamp recordings were conducted at room temperature. Patch pipettes pulled from borosilicate capillaries (World Precision Instruments, Inc., Sarasota, FL) were used to record transient Na currents with an Axopatch-200B amplifier with a Digidata 1440A (Axon Instruments, Sunnyvale CA). The resistance was set to 3-4 MΩ when filled with pipette solution. The pipette solution contained (in mmol/L): CsCl 130, NaCl 9, MgCl2 1, EGTA 10, HEPES 10, adjusted to pH 7.3 with CsOH. The external solution for recording transient Na^+ currents contained (in mmol/L): NaCl 131, TEACl 10, CsCl 10, CaCl2) 1, MgCl2 2, CdCl2 0.3, 4-aminopyridine 3, HEPES 10, glucose 10, adjusted to pH 7.4 with NaOH. The recording chamber (300 μL) was continuously superfused at 3-4 mL/min. Series resistance was compensated (>80%) and leak subtraction was performed. Data were low-pass-filtered at 2 kHz and sampled at 10 kHz. pClamp10 (Axon Instruments) software was used during experiments and analysis. In voltage-clamp experiments, transient Na+ currents were evoked by a test pulse to 0 mV from the holding potential (−70 mV).
The effects of the 9 selected compounds on Nav1.7 channel activities were tested using patch-clamp recordings on human Nav1.7 expressing HEK293 cells (FIG. 3, FIG. 4). In each cell, sodium currents were recorded for 13 min, and candidate inhibitors (10 μM) were incubated for 2 min after 2 min baseline recording (FIG. 3). Compound was applied at the beginning of the second minute for two minutes (denoted as a horizontal line above the X-axis). Sodium currents were recorded at equal intervals (every 20 seconds, 40 recordings per compound per cell). Data was analyzed with a two-way repeated measures ANOVA, followed by a post-hoc test of the last timepoint Bonferroni-corrected for 9 pairwise comparisons (each compound was compared with control). […] Sample size n=3 to 7 cells per group.
For FIG. 4C, sample size was n=5 to 7 cells per group. Compound was applied at the beginning of the second minute for two minutes (denoted as a horizontal line above the X-axis). Sodium currents were recorded every 20 seconds.

[1] = system: mouse dorsal root ganglion (DRG) neurons; test: Patch-clamp of transient sodium currents in mouse DRG neurons (naive and paclitaxel-pretreated); type: cell-based; conditions: for inhibition at 10 µM: Mus musculus, DRG neuron
Description: Mouse DRGs were removed aseptically from mice (4-6 weeks) and incubated with collagenase (1.25 mg/mL, Roche)/dispase-II (2.4 units/mL, Roche) in HBSS buffer at 37° C. for 90 min. Cells were mechanically dissociated with a flame polished Pasteur pipette in the presence of 0.05% DNAse I (Sigma). DRG cells were plated on 0.5 mg/mL poly-D-lysine-coated glass cover slips and grown in a neurobasal defined medium (with 10% FBS, 2% B27 supplement, Invitrogen) with 5 μM AraC and 5% carbon dioxide at 36.5° C. DRG neurons were grown for 24 hours before use. Patch clamp recordings were conducted in small-diameter (<25 μm) DRG neurons.
as §1

[2] = system: formalin-induced inflammatory pain; test: Formalin-induced nociceptive behavioral test; type: in vivo, mouse; conditions: mice
Description: The formalin test was conducted following our previously published protocol (Chen, Ji, et al. 2018; Neurosci Bull; 34: 98-108). The animals were acclimatized in a transparent acrylic observation chamber for 2 days before test. Vehicle or active compound were administered intrathecally, intraperitoneally, or intraplantarly, 30 min later followed by an intraplantar injection of 20 μL of 5% formalin. After the formalin injection, mice were immediately placed back in the observation chamber, and videoed for 40 min. The videos were analyzed after experiments in a double blinded way. We assessed formalin-evoked spontaneous pain by measuring the time (in seconds) mice spent on licking or flinching the affected paw every 5 min for […]. Phase I and Phase II were defined as periods of 0-10 min and 10-40 min, respectively.
For intrathecal injection, spinal cord puncture was made by a Hamilton microsyringe (Hamilton Company, Reno, Nevada) with a 30-G needle between the L5 and L6 level to deliver reagents (5 μL) to the cerebral spinal fluid. For intraperitoneal injection, Vehicle or drug was injected into peritoneal with a 30-G needle. For intraplantar injection, 20 μL vehicle or drug was injected into the surface of the hind paw.

[3] = system: paclitaxel-induced mechanical allodynia; test: Paclitaxel-induced neuropathic pain model (von Frey); type: in vivo, mouse; conditions: for effect on paclitaxel-induced mechanical allodynia: mice
Description: Intraperitoneal injection of paclitaxel (PTX, 2 mg/kg for multiple injections at day 0, 2, 4, and 6) was given to generate chemotherapy-associated neuropathic pain. Neuropathic pain behavior was tested 3 weeks after PTX injection using a von Frey test. Briefly, animals were habituated to the testing environment daily for at least 2 days before the baseline testing. Animals were confined in boxes placed on an elevated metal mesh floor and the hind paws were stimulated with a series of von Frey hairs with logarithmically increasing stiffness (0.02-2.56 g, Stoelting), presented perpendicularly to the central plantar surface. The 50% paw withdrawal threshold was determined by an up-down method.

[4] = system: histamine-induced acute itch; test: Histamine-induced itch model; type: in vivo, mouse; conditions: listed as DA-0218
Description: Itch behavior was tested blindly. Mice were habituated to the testing environment daily for at least two days before testing. Animals were shaved at the back of the neck in an area of approximately 15×10 mm on the day before the injection of pruritic agent. Animals were put in small plastic chambers (14×18×12 cm) on an elevated metal mesh floor and allowed 30 min for habituation before examination. Mice were then briefly removed from the chamber and given an intradermal injection (50 μL) of 500 μg of histamine in the nape of the neck. After the injection, mouse behaviors were video-recorded and the number of scratches in every 5 min for 30 min was counted. A scratch was counted when a mouse lifted its hindpaw to scratch the shaved region and returned the paw to the floor or to the mouth.

Sequence of human Nav1.7 (Q15858 whole entry): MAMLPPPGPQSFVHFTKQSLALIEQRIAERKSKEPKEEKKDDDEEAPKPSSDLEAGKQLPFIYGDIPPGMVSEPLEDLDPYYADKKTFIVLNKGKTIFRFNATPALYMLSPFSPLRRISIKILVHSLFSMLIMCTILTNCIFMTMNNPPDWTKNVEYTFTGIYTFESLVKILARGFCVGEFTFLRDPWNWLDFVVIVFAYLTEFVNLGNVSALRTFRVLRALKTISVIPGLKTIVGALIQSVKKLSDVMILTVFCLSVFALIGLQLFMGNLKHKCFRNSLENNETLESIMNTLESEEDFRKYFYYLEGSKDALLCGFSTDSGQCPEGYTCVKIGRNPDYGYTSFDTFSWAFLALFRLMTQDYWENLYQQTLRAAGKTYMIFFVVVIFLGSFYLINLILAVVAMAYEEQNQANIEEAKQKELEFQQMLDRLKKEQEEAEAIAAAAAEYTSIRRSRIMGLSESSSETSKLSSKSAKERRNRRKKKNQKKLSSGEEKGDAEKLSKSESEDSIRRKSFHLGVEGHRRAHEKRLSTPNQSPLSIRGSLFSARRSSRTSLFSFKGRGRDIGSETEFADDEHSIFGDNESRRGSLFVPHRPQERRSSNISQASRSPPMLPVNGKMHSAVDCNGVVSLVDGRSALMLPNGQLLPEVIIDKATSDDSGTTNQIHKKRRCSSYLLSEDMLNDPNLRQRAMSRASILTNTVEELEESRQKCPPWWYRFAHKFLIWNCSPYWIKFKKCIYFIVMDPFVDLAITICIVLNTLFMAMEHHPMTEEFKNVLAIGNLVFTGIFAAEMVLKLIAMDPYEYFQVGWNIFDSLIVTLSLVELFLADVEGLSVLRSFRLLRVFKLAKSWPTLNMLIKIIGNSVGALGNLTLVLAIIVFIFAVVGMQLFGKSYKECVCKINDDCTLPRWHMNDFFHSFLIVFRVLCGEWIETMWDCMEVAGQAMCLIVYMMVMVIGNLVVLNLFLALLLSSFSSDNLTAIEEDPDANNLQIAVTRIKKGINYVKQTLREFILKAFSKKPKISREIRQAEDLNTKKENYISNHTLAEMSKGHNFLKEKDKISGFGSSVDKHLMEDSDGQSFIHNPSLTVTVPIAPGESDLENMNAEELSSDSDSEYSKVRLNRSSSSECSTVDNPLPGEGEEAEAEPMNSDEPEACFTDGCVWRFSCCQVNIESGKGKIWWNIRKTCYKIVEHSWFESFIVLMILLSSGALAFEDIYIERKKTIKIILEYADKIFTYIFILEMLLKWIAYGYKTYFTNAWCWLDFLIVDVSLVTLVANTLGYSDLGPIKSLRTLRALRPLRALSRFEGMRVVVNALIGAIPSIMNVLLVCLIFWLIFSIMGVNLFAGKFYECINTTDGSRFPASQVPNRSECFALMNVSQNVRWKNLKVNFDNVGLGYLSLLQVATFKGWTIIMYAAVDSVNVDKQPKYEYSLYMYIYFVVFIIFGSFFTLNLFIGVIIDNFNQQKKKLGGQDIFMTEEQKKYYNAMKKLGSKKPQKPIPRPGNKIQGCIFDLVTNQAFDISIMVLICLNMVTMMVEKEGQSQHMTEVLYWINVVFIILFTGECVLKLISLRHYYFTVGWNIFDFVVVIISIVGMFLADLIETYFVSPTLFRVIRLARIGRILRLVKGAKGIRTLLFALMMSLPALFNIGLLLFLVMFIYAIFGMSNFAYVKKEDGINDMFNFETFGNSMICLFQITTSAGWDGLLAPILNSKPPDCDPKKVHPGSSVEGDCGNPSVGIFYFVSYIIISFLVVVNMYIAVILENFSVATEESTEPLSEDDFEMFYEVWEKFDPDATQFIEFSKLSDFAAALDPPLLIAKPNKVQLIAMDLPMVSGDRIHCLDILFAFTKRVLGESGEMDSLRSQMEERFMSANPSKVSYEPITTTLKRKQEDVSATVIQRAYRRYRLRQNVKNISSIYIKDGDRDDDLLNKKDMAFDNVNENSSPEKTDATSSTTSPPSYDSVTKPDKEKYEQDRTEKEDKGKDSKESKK

difference in relative current from the control group at the last measurement (human Nav1.7; 0.01 μM, dose-response (FIG. 4), not significant): 0.13
difference in relative current from the control group at the last measurement (human Nav1.7; 0.1 μM, dose-response (FIG. 4)): 0.27
inhibition of sodium currents vs. control (human Nav1.7; 1 μM): 47%
difference in relative current from the control group at the last measurement (human Nav1.7; 1 μM, dose-response (FIG. 4)): 0.47
difference in relative current from the control group at the last measurement (human Nav1.7; 10 μM, dose-response (FIG. 4)): 0.76
difference in relative current from the control group at the last measurement (human Nav1.7; 10 μM, screen of compounds 1-9 (FIG. 3)): 0.71
IC50 (human Nav1.7; Nav1.7-expressing HEK293 cells, dose-response, read-out: 50% inhibition concentration (IC50)): 740 nM
Structure (SMILES): O=C(CC(c1cccc(Oc2ccccc2)c1)c1cn(Cc2ccccc2)c2ccccc12)NCCN1CCCC1 (stereo not shown) [Compound 9, 3-(1-benzyl-1H-indol-3-yl)-3-(3-phenoxyphenyl)-N-(2-(pyrrolidin-1-yl)ethyl)propanamide]
time to peak inhibition after the drug incubation ([1]; 10 μM, mouse DRG neurons): 10 min
inhibition at 10 µM ([1]; 10 μM, naive (non-treated) mouse DRG neurons, read-out: inhibition of peak INaT (sodium currents)): 17%
inhibition at 10 µM ([1]; 10 μM, paclitaxel pretreated mouse DRG neurons, read-out: inhibition of sodium currents): 44%
mean relative current at the last measurement ([1]; mouse DRG neurons, naive): 72 % of the baseline
mean relative current at the last measurement ([1]; mouse DRG neurons, paclitaxel-treated): 43 % of the baseline
inhibition of formalin-induced pain in Phase II ([2]; intraperitoneal 30 mg/kg): 76%
inhibition of formalin-induced pain in Phase II ([2]; intraplantar 60 nmol): significant inhibition
effect on formalin Phase I response ([2]; intrathecal 30 nmol): reduced Phase I response
inhibition of formalin-induced second-phase (Phase II) pain ([2]; intrathecal (3, 10 and 30 nmol)): 80%
effect on paclitaxel-induced mechanical allodynia ([3]; intraperitoneal 30 mg/kg, listed as DA-0218): no effect on allodynia; also recorded: did not produce any anti-allodynia effects
effect duration, chronic pain ([3]; intrathecal, paclitaxel model): 3 h
effect on paclitaxel-induced mechanical allodynia ([3]; intrathecal, single injection, listed as DA-0218): acute reduction; also recorded: transiently but completely reversed; also recorded: statistically significant anti-allodynia effects
analgesic effect after repeated intrathecal injections (2nd and 3rd injection) ([3]; tested one hour after each injection, paclitaxel model, listed as DA-0218): did not produce any analgesic effect; also recorded: induced acute tolerance
effect on histamine-induced scratches ([4]; intrathecal 30 nmol, 500 μg histamine intradermal, 30 min): statistically significant reduction; also recorded: effective against histamine-induced itch
effect on histamine-induced scratch bouts ([4]; intrathecal, dose response): inhibited histamine-induced acute itch; also recorded: dose-dependent reduction
